These are literature values, as cited in patent US20090175967A1, “METHODS FOR TREATMENT OF INTESTINAL CARCINOGENESIS WITH RICE BRAN” (priority 2008, published 2009).

The data set concerns Apc^Min mice.

As to `COc1cc(/C=C/C(=O)CC(=O)/C=C/c2ccc(O)c(OC)c2)ccc1O` [curcumin], the adenoma development entry was “compromised adenoma development”.
